# Measurements published in publication PMC11013038, “Design, Synthesis, and Evaluation of B-(Trifluoromethyl)phenyl Phosphine–Borane Derivatives as Novel Progesterone Receptor Antagonists” (Molecules, 2024).
# What was measured:
# [1] = LogP (1-octanol/water partition coefficient) determined using HPLC; type: physicochemical; conditions: HPLC (OECD guideline), C18 column, methanol–water 75% (v/v), 40 °C, mean of triplicate
# Protocol: Hydrophobicity is a key determinant of the activity and pharmacokinetics of biologically active compounds, and the octanol–water partition coefficient (P) and logarithm value (LogP) are widely used hydrophobicity parameters. The LogP values of the synthesized compounds were determined using HPLC [45, 46]. Table 1 summarizes the experimentally determined LogP values and calculated values. […] From the viewpoint of the phosphine structure, an increase in the number of carbon atoms increased hydrophobicity in a predictable manner.
# The 1-octanol/water partition coefficient P was determined using HPLC based on the OECD Guideline for Testing Chemicals. A COSMOSIL Packed Column 5C18-MS-II (5 μm, 150 mm × 4.6 mm id, Nacalai Tesque, Inc., Kyoto, Japan) was fitted on an HPLC instrument (Multiwavelength Detector, MD-2010 Plus. JASCO, Tokyo, Japan) equipped with a pump (PU-2080, JASCO) and an oven (SSC-2120, Senshu Scientific Co., Ltd., Tokyo, Japan). The injection volume was 20 µL; the mobile phase was methanol–water 75% (v/v); and the flow rate was 1.0 mL/min in all cases. Compounds were detected by measuring the UV absorption at 240 nm. The temperature of the column was kept at 40.0 (± 0.1) °C during the measurement. The measurement was performed in triplicate, and the mean value was calculated. The dead time t0 was measured with thiourea as the unretained compound, and the capacity factor k was calculated using the equation logk = log (tr − t0/t0), where tr represents the retention time of the compound. A calibration graph was determined experimentally using reference compounds (4-methylphenol, 4-chlorophenol, 4-phenylphenol, diphenylether, fluoranthene, and dichlorodiphenyltrichloroethane) with known logP values. The LogP values of phosphine–boranes were calculated based on a calibration graph (LogP = 2.6269 logkw + 3.059, R^2 = 0.9915).
# [2] = target: T1, progesterone receptor (PR) (Homo sapiens, UniProt P06401); assay: T47D alkaline phosphatase assay, PR antagonistic activity in the presence of 1 nM P4; type: cell-based; conditions: T47D cells, 1.0 nM P4, 48 h; mean ± SD from three independent experiments
# T1 construct: alkaline phosphatase assay with the T47D human breast cancer cell line; endogenous in cells; host or cells: T47D
# T1 sequence (P06401 1-933): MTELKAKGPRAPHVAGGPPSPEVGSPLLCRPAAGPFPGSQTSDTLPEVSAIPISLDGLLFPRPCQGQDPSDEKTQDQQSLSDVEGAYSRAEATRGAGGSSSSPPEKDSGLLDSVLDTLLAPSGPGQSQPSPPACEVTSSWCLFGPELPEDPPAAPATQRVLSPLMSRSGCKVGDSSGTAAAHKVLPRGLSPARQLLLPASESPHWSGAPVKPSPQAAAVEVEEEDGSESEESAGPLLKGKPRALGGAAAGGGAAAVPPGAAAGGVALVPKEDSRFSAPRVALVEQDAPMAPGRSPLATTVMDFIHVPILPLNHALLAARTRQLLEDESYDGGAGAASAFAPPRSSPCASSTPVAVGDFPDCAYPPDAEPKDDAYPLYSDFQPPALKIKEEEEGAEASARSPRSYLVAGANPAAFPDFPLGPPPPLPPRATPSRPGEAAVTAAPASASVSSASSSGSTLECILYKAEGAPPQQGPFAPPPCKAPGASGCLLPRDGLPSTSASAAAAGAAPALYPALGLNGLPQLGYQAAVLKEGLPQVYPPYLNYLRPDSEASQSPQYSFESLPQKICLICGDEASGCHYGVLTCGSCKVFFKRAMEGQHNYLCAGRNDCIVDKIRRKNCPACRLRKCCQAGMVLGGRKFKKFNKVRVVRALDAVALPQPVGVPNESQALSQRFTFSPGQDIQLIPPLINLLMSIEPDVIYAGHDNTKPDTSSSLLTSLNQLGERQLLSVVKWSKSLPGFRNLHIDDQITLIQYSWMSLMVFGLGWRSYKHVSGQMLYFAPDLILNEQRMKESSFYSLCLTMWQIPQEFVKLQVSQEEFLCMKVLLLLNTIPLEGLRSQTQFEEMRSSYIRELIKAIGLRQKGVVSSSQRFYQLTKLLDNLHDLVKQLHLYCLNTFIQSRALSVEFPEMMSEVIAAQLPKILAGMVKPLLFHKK
# Protocol: The PR agonistic and antagonistic activities of the synthesized phosphine–borane derivatives were evaluated using an alkaline phosphatase assay with the T47D human breast cancer cell line. […] The basal alkaline phosphatase activity was also not affected by the tested compounds alone. […] The PR antagonistic activities of the compounds were assessed in the presence of 1 nM of P4 (5). We also calculated the molecular volume of each compound to investigate the structure–activity relationship (SAR). Table 2 summarizes the PR antagonistic activity and calculated volumes of the synthesized compounds. […] We investigated the binding affinity of the compounds toward the PR ligand-binding domain (LBD) using a fluorescence polarization assay system. […] We also investigated the activity of compounds 28 and 34 toward the androgen receptor (AR) by means of cell-proliferation promoting/inhibitory activity toward androgen-dependent SC-3 cells. […].
# T47D alkaline phosphatase assays were performed as previously described, with minor modifications. Briefly, the human breast cancer cell line T47D (HMS LINCS database Accession Numbers: 50541) was routinely cultivated in RPMI 1640 medium with 10% FBS at 37 °C in a 5% CO2 humidified incubator. The cells were plated in 96-well plates and incubated overnight in a 5% CO2 humidified incubator at 37 °C. The next day, the cells were treated with a fresh medium containing the test compound in the presence of 1 nM of progesterone and further incubated for 48 h. The medium was aspirated, and the cells were fixed with 100 μL of 1.8% formalin–PBS. The fixed cells were washed with PBS, and 100 μL of an assay buffer (1 mg/mL p-nitrophenol phosphate in diethanolamine water solution, pH 9.0) was added. The mixture was incubated at room temperature for 2 h under light-shielded conditions. The absorbance was measured at 405 nm using a DTX 880 Multimode Detector (Beckman Coulter, Brea, CA, USA). All data points were measured in triplicate, and IC50 values were calculated from three independent experiments.
compound,measurement,setting,value
"CN(C)[P+]([BH2-]c1ccc(C(F)(F)F)cc1)(N(C)C)N(C)C [Compound 39, B-4-(Trifluoromethyl)phenyl Tris(dimethylamino)phosphine–Borane]",chromatographic logP,[1],5.64
same,IC50,[2],1400 ± 880 nM
same,melting point,,41.1 to 41.6 °C
